Data: patent publication US20240270741A1 (Cogent Biosciences, Inc., priority 2023, published 2024)

biological target: FGFR2 (Homo sapiens, UniProt P21802); test: FGFR wild type enzyme assay (HTRF KinEASE-TK), FGFR2; settings: Enz FGFR2 (nM), FGFR2 wild type enzyme assay
Sequence (P21802 399-821 limits assumed): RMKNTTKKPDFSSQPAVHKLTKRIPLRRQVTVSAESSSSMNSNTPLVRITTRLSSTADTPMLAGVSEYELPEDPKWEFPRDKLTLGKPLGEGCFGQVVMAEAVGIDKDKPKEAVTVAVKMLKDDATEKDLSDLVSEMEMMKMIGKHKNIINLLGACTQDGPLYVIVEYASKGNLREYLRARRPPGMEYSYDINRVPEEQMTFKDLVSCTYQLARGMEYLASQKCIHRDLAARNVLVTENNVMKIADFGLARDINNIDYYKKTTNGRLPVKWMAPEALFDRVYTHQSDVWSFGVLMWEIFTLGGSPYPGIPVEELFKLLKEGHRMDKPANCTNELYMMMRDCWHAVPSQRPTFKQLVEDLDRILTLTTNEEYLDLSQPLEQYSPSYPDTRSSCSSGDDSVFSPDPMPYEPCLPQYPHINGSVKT

SMILES | IC50 [nM]
COC(=O)N1CCC(n2cc(-c3cc(Sc4ccccc4C#N)c4c(C#N)cnn4c3)cn2)CC1 [Example 481, methyl 4-(4-(3-cyano-4-((2-cyanophenyl)thio)pyrazolo [1,5-a]pyridin-6-yl)-1H-pyrazol-1-yl)piperidine-1-carboxylate] | 4
Cc1c(-c2cc(Sc3ccc(F)cc3C#N)c3c(C#N)cnn3c2)cnn1CC(C)(C)O [Example 486, 4-((2-cyano-4-fluorophenyl)thio)-6-(1-(2-hydroxy-2-methylpropyl)-5-methyl-1H-pyrazol-4-yl)pyrazolo[1,5-a]pyridine-3-carbonitrile] | 9
CC(C)(C)n1cc(-c2cc(Sc3ncccc3F)c3c(C#N)cnn3c2)cn1 [Example 489, 6-(1-(tert-butyl)-1H-pyrazol-4-yl)-4-((3-fluoropyridin-2-y)thio)pyrazolo[1,5-a]pyridine-3-carbonitrile] | 3
CC(C)(O)Cn1cc(-c2cc(Sc3ncccc3F)c3c(C#N)cnn3c2)cn1 [Example 490, 4-((3-fluoropyridin-2-yl)thio)-6-(1-(2-hydroxy-2-methylpropyl)-1H-pyrazol-4-yl)pyrazolo[1,5-a]pyridine-3-carbonitrile] | 2
N#Cc1cnn2cc(-c3ccc(N4CCOCC4)nc3)cc(Sc3ncccc3F)c12 [Example 491, 4-((3-fluoropyridin-2-yl)thio)-6-(6-morpholinopyridin-3-yl)pyrazolo[1,5-a]pyridine-3-carbonitrile] | 1
N#Cc1ccccc1Sc1cc(-c2cnn(C[C@@H](O)CO)c2)cn2ncc(C#N)c12 [Example 492, (R)-4-((2-cyanophenyl)thio)-6-(1-(2,3-dihydroxypropyl)-1H-pyrazol-4-yl)pyrazolo[1,5-a]pyridine-3-carbonitrile] | 1

Other lines, results leading:

IC50 [nM] | SMILES
1 | COC(=O)N1CC[C@H](n2cc(-c3cc(Sc4ncccc4F)c4c(C#N)cnn4c3)cn2)C1 [Example 480, methyl (S)-3-(4-(3-cyano-4-((3-fluoropyridin-2-yl)thio)pyrazolo[1,5-a]pyridin-6-yl)-1H-pyrazol-1-yl)pyrrolidine-1-carboxylate]
1 | COC(=O)N1CCC[C@H](n2cc(-c3cc(Sc4ccccc4C#N)c4c(C#N)cnn4c3)cn2)C1 [Example 482, methyl (S)-3-(4-(3-cyano-4-((2-cyanophenyl)thio)pyrazolo [1,5-a]pyridin-6-yl)-1H-pyrazol-1-yl)piperidine-1-carboxylate]
0.5 | COC(=O)N1CC[C@H](n2cc(-c3cc(Sc4ccccc4C#N)c4c(C#N)cnn4c3)cn2)C1 [Example 483, methyl (S)-3-(4-(3-cyano-4-((2-cyanophenyl)thio)pyrazolo [1,5-a]pyridin-6-yl)-1H-pyrazol-1-yl)pyrrolidine-1-carboxylate]
0.4 | N#Cc1ccccc1Sc1cc(-c2cnn([C@H]3CCN(C(=O)CO)C3)c2)cn2ncc(C#N)c12 [Example 484, (S)-4-((2-cyanophenyl)thio)-6-(1-(1-(2-hydroxyacetyl)pyrrolidin-3-yl)-1H-pyrazol-4-yl)pyrazolo[1,5-a]pyridine-3-carbonitrile]
0.4 | N#Cc1ccccc1Sc1cc(-c2cnn([C@H]3CCN(CCO)C3)c2)cn2ncc(C#N)c12 [Example 485, (S)-4-((2-cyanophenyl)thio)-6-(1-(1-(2-hydroxyethyl)pyrrolidin-3-yl)-1H-pyrazol-4-yl)pyrazolo[1,5-a]pyridine-3-carbonitrile]
0.4 | N#Cc1ccccc1Sc1cc(-c2cnn([C@H]3CCCNC3)c2)cn2ncc(C#N)c12 [Example 487, (S)-4-((2-cyanophenyl)thio)-6-(1-(piperidin-3-yl)-1H-pyrazol-4-yl)pyrazolo[1,5-a]pyridine-3-carbonitrile]
1 | CC(=O)N[C@H]1CC[C@@H](n2ncc(-c3cc(Sc4nc(C)c(F)cc4F)c4c(C#N)cnn4c3)c2C)CC1 [Example 488, N-((1s,4s)-4-(4-(3-cyano-4-((3,5-difluoro-6-methylpyridin-2-yl)thio)pyrazolo[1,5-a]pyridin-6-yl)-5-methyl-1H-pyrazol-1-yl)cyclohexyl)acetamide]
